According to patent publication US8017594B2, “Agent against psychosocial stresses” (Yamasa Corporation, priority 2006, dated 2011):

System: isolation-reared male ddy mice
Test: Aggressive behavior of isolation-reared (sociopsychological stress) mice
Format: in vivo
Conditions: six weeks after initiation of isolation-rearing, two mice in same cage for 20 minutes, vs solvent
Method: Conceivably, this phenomenon is attributed to the fact that rearing of experimental animals under conditions where social environmental change or social stimuli are absent imposes a kind of sociopsychological stress on the animals (“Mechanism of Sleep,” pp. 52-73 “Stress and Sleep,” Asakura Publishing Co., Ltd. (1997)). In Example 1, anti-stress effects of uridine and GABA (i.e., control) were evaluated through use of this phenomenon. Specifically, isolation-rearing of male ddy mice was initiated at four weeks old, to thereby impose sociopsychological stress (stress caused by isolation-rearing) on the mice. Thus, animal models for evaluation were prepared.
On the basis of this report, the following evaluation was carried out. Specifically, six weeks after initiation of isolation-rearing, two mice were placed in the same cage for 20 minutes, and the time during which aggressive behavior was observed was measured. The effect of uridine or GABA on prolongation of aggressive behavior was evaluated.
A test compound was suspended or dissolved in 0.5% aqueous carboxymethylcellulose solution, and the resultant suspension or solution was orally administered once a day, six days a week, until the end of the experiment.
Mice were divided into four groups. Mice of one group were group-reared and received a solvent. Mice of the other three groups were isolation-reared and received a solvent (100 mg/kg/day), uridine (100 mg/kg/day), and GABA (100 mg/kg/day), respectively. Observation of aggressive behavior was carried out in […] of mice in each group (n=9).
The experiment of Example 1 was repeated, except that the dose of uridine was changed to 10 mg/kg/day, and uridylic acid was administered in place of GABA at a dose of 1 g/kg/day.

[1] = 100 mg/kg/day oral, once a day six days a week

| Compound | time during which aggressive behavior was observed (10 mg/kg/day oral (low-dose)) | time during which aggressive behavior was observed [1] | time during which aggressive behavior was observed (1 g/kg/day oral) |
| --- | --- | --- | --- |
| O=c1ccn([C@@H]2O[C@H](CO)[C@@H](O)[C@H]2O)c(=O)[nH]1 [uridine] | significantly reduced | significantly reduced |  |
| NCCCC(=O)O [GABA, γ-aminobutyric acid, reference compound] |  | significantly reduced |  |
| O=c1ccn([C@@H]2O[C@H](COP(=O)(O)O)[C@@H](O)[C@H]2O)c(=O)[nH]1 [uridylic acid] |  |  | significantly reduced |
